From patent publication US20090098044A1, “SOLID PARTICLES FROM CONTROLLED DESTABILISATION OF MICROEMULSIONS” (Australian Nuclear Science and Technology Organisation, priority 2004, published 2009)

How the values were obtained:
Format in all cases: physicochemical
[1] = Decomposition of pure doxorubicin in PBS (pH 6.9/25° C.) at 37° C.; details: normal phosphate buffer
[2] = Solubility of the drug
[3] = Decomposition of doxorubicin at pH 7.4 versus pH<4
Excerpt: The decomposition rate of doxorubicin at physiological pH (pH 7.4) versus its decomposition rate at pH<4 makes analysis of the system difficult.

COc1cccc2c1C(=O)c1c(O)c3c(c(O)c1C2=O)C[C@@](O)(C(=O)CO)C[C@@H]3O[C@H]1C[C@H](N)[C@H](O)[C@H](C)O1 [doxorubicin]
doxorubicin disappears ([1]; in 2 weeks): about 74% | half-life ([1]; phosphate buffer (PBS), pH 6.9, exponential decomposition during first ten days, read-out: half decay (T1/2) of doxorubicin (converted)): ~108 h | solubility of doxorubicin in acetone ([2]; acetone): high solubility | solubility of doxorubicin in aqueous solutions ([2]; aqueous solutions, orange precipitate seen after day 9): limited solubility | decomposition of doxorubicin at pH 7.4 compared with pH<4 ([3]; known concentration of doxorubicin, FIG. 44): increased decomposition at physiological pH | stability of doxorubicin as a function of pH ([3]; pH<4 (pH ~3.4)): most stable at this pH
